Biological target: NLRP3 inflammasome (Homo sapiens (Human), UniProt Q96P20)
Test: Evaluation of NLRP3 inflammasome inhibitory activity (inhibition of IL-1β production in LPS/Nigericin-stimulated THP1-Null cells)
Type: cell-based
Settings: IL-1β production in THP1-Null cells, PMA, LPS 1 μg/mL, Nigericin 7.5 μmol/L, AlphaLISA
Description: The NLRP3 inflammasome inhibitory activity of test compounds were evaluated on the basis of the inhibitory activity of the IL-1β production in THP1-Null cells (Product Number: thp-null, InvivoGen). […] The supernatant of the culture was removed, and thereto was added media for assay (25 μL/well) containing 1 μg/mL Lipopolysaccharides (Product Number: L2654, Sigma-Aldrich (registered trademark)). […] The supernatant of the culture was removed. […] A solution containing a test compound (20 μL/well) was added to test compound-setting wells. […] The supernatant of the culture was cryonically stored (set at −20° C.) until measurement of IL-1β.
The amount of IL-1β in the culture supernatant was quantitated with AlphaLISA(registered trademark) Human IL-1β Detection Kit (Product Number: AL220C, Perkin Elmer). Fluorescence intensity was measured with a microplate reader EnSpier (Model number: 2300-00J, Perkin Elmer) or EnSight(Model number: HH34000000, Perkin Elmer) according to procedure manuals attached thereto. Inhibition rates of the test compound-setting wells were calculated on the basis of 100% for the blank-setting wells and 0% for the control-setting wells.

Chain of NLRP3 inflammasome (Q96P20 whole entry): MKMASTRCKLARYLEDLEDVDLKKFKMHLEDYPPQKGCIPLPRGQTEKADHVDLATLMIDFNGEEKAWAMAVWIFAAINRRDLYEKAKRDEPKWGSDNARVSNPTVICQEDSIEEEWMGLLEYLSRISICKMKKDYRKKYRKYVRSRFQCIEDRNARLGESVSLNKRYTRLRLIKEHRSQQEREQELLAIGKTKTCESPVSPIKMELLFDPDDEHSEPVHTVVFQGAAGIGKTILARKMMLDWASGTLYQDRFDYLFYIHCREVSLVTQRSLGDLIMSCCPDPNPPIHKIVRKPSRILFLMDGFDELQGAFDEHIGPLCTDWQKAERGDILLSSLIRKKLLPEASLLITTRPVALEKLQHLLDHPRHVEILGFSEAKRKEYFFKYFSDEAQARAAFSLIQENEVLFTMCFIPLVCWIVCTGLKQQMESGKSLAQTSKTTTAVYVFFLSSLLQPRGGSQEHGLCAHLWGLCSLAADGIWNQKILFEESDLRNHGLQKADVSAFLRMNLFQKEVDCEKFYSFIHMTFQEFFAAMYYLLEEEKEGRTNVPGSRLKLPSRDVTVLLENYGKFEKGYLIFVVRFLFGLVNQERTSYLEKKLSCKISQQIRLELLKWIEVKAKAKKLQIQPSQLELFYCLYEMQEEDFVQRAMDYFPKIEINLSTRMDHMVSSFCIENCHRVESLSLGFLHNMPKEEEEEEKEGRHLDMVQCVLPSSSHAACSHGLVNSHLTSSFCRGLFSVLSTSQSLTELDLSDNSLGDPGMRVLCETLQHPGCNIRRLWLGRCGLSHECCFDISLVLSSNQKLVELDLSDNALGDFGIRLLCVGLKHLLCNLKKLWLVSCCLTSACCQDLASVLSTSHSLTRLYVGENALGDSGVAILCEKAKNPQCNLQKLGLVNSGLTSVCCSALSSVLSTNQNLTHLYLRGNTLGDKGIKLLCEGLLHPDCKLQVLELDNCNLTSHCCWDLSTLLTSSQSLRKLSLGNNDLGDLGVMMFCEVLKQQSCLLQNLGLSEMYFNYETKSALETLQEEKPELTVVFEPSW

SMILES | IC50
C=C(C)c1ccc(-n2cc3c(=O)[nH]c(N4CCCC4)nc3n2)c(C)c1 [Example 81] | 11 nM
Cc1cc(C2CC2)ccc1-n1cc2c(=O)[nH]c(N3CCCC3)nc2n1 [Example 82] | 4.1 nM
Cc1cc(C(C)C)ccc1-n1cc2c(=O)[nH]c(N3CCCC3)nc2n1 [Example 83] | 8.4 nM
Cc1ccc(-n2cc3c(=O)[nH]c(N4CCN(C)CC4)nc3n2)c(C)c1 [Example 84] | 95 nM
Cc1ccc(-n2cc3c(=O)[nH]c(N4CC(F)(F)C(F)(F)C4)nc3n2)c(C)c1 [Example 85] | 24 nM
O=c1[nH]c(N2CCCC2)nc2nn(-c3ccc(C(F)(F)F)cc3Cl)cc12 [Example 86] | 2.9 nM
Cc1ccc(-n2cc3c(=O)[nH]c(N4CCCC4)nc3n2)c(Cl)c1 [Example 87] | 5.1 nM
Cc1cc(Br)ccc1-n1cc2c(=O)n(C)c(N3CCOCC3)nc2n1 [Example 88, 2-(4-bromo-2-methylphenyl)-5-methyl-6-morpholino-2,5-dihydro-4H-pyrazolo[3,4-d]pyrimidin-4-one] | 39 nM
Cc1cc(Br)ccc1-n1cc2c(=O)[nH]c(N3CCN(S(C)(=O)=O)CC3)nc2n1 [Example 91] | 6.7 nM
Cc1cc(C)c(-n2cc3c(=O)[nH]c(N4CC(F)(F)C4)nc3n2)c(C)c1 [Example 92] | 11 nM
Cc1cc(Cl)ccc1-n1cc2c(=O)[nH]c(N3CCCC3)nc2n1 [Example 95] | 5.2 nM
Cc1cc(C)c(-n2cc3c(=O)[nH]c(N4CCOCC4)nc3n2)c(C)c1 [Example 96] | 14 nM
O=c1[nH]c(N2CCCC2)nc2nn(-c3ccc(Cl)cc3F)cc12 [Example 97] | 27 nM
Cc1cc(C(F)(F)F)ncc1-n1cc2c(=O)[nH]c(N3CCOCC3)nc2n1 [Example 98, 2-(4-methyl-6-(trifluoromethyl)pyridin-3-yl)-6-morpholino-2,5-dihydro-4H-pyrazolo[3,4-d]pyrimidin-4-one] | 54 nM
Cc1cc(C(F)(F)F)ncc1-n1cc2c(=O)[nH]c(N3CC(F)(F)C3)nc2n1 [Example 99] | 82 nM
Cc1cc(C)c(-n2cc3c(=O)[nH]c(N4CCCOCC4)nc3n2)c(C)c1 [Example 100] | 20 nM
Cc1cc(C)c(-n2cc3c(=O)[nH]c(N4CCN(C(=O)OC(C)(C)C)CC4)nc3n2)c(C)c1 [Example 101] | 5.6 nM
Cc1cc(C)c(-n2cc3c(=O)[nH]c(N4CCNCC4)nc3n2)c(C)c1 [Example 102] | 130 nM
Cc1cc(C)c(-n2cc3c(=O)[nH]c(N4CCN(S(=O)(=O)C5CC5)CC4)nc3n2)c(C)c1 [Example 103] | 6.5 nM
O=c1[nH]c(N2CCOCC2)nc2nn(-c3ccc(Br)cc3CO)cc12 [Example 104] | 140 nM
Cc1cc(C)c(-n2cc3c(=O)[nH]c(N4CCC(O)CC4)nc3n2)c(C)c1 [Example 105] | 64 nM
COC1CCN(c2nc3nn(-c4c(C)cc(C)cc4C)cc3c(=O)[nH]2)CC1 [Example 106] | 96 nM
Cc1cc(C)c(-n2cc3c(=O)[nH]c(N4CC5C(C4)C5(F)F)nc3n2)c(C)c1 (stereo not shown) [Example 114] | 27 nM
Cc1cc(C)c(-n2cc3c(=O)[nH]c(N4CCC(CO)CC4)nc3n2)c(C)c1 [Example 115] | 35 nM

SMILES | IC50
Cc1cc(C)c(-n2cc3c(=O)[nH]c(N4CC5COCC5C4)nc3n2)c(C)c1 (stereo not shown) [Example 117] | 46 nM
Cc1cc(C)c(-n2cc3c(=O)[nH]c(N4CCC5(CC4)COC5)nc3n2)c(C)c1 [Example 118] | 44 nM
C#Cc1ccc(-n2cc3c(=O)[nH]c(N4CCCC4)nc3n2)c(C)c1 [Example 119] | 16 nM
CCc1ccc(-n2cc3c(=O)[nH]c(N4CCCC4)nc3n2)c(C)c1 [Example 120] | 19 nM
Cc1nc(C(F)(F)F)ccc1-n1cc2c(=O)[nH]c(N3CCOCC3)nc2n1 [Example 121] | 540 nM
Cc1cc(C(F)(F)F)cnc1-n1cc2c(=O)[nH]c(N3CCOCC3)nc2n1 [Example 122] | 180 nM
Cc1cc(C(F)(F)F)cnc1-n1cc2c(=O)[nH]c(N3CC(F)(F)C3)nc2n1 [Example 123] | 140 nM
Cc1cc(C2CC2)cc(C)c1-n1cc2c(=O)[nH]c(N3CCOCC3)nc2n1 [Example 124] | 3 nM
Cc1ccc(-n2cc3c(=O)[nH]c(N4CCOCC4)nc3n2)c(C)c1 [Example 126] | 53 nM
O=c1[nH]c(N2CCCC2)nc2nn(-c3ccc(Cl)cc3Cl)cc12 [Example 127] | 13 nM
O=c1[nH]c(N2CCOCC2)nc2nn(-c3ccc(C(F)(F)F)cc3Cl)cc12 [Example 128] | 28 nM
O=c1[nH]c(N2CCCOCC2)nc2nn(-c3ccc(C(F)(F)F)cc3Cl)cc12 [Example 129] | 35 nM
CC(=O)c1cc(Br)ccc1-n1cc2c(=O)[nH]c(N3CCOCC3)nc2n1 [Example 131] | 63 nM
CC(C)(C)OC(=O)N1CCCN(c2nc3nn(-c4ccc(C(F)(F)F)cc4Cl)cc3c(=O)[nH]2)CC1 [Example 132] | 74 nM
O=c1[nH]c(N2CCCNCC2)nc2nn(-c3ccc(C(F)(F)F)cc3Cl)cc12 [Example 133] | 63 nM
CC(=O)N1CCCN(c2nc3nn(-c4ccc(C(F)(F)F)cc4Cl)cc3c(=O)[nH]2)CC1 [Example 134] | 91 nM
CS(=O)(=O)N1CCCN(c2nc3nn(-c4ccc(C(F)(F)F)cc4Cl)cc3c(=O)[nH]2)CC1 [Example 135] | 43 nM
Cc1cc(Br)ccc1-n1cc2c(OC(C)C)nc(N3CCOCC3)nc2n1 [Example 136] | 230 nM
COc1nc(N2CCN(S(C)(=O)=O)CC2)nc2nn(-c3ccc(Br)cc3C)cc12 [Example 137] | 170 nM
Cc1cc(Br)ccc1-n1cc2c(=O)n(C)c(N3CCN(S(C)(=O)=O)CC3)nc2n1 [Example 138] | 140 nM
Cc1cc(Br)ccc1-n1cc2c(=O)[nH]c(N3CCN(S(=O)(=O)C4CC4)CC3)nc2n1 [Example 139] | 5.3 nM
Cc1cc(Br)ccc1-n1cc2c(=O)[nH]c(N3CCN(C(=O)C4CC4)CC3)nc2n1 [Example 140] | 5.8 nM
COCC(=O)N1CCN(c2nc3nn(-c4ccc(Br)cc4C)cc3c(=O)[nH]2)CC1 [Example 141] | 9.6 nM
Cc1cc(Br)ccc1-n1cc2c(=O)[nH]c(N3CCCOCC3)nc2n1 [Example 142] | 22 nM

SMILES | IC50
COCc1cc(Cl)ccc1-n1cc2c(=O)[nH]c(N3CCOCC3)nc2n1 [Example 143] | 59 nM
COCc1cc(Cl)ccc1-n1cc2c(=O)[nH]c(N3CCCC3)nc2n1 [Example 144] | 24 nM
Cc1cc(Br)cc(C)c1-n1cc2c(=O)[nH]c(N3CCCOCC3)nc2n1 [Example 145] | 12 nM
Cc1cc(Br)cc(Cl)c1-n1cc2c(=O)[nH]c(N3CCOCC3)nc2n1 [Example 146] | 9.2 nM
Cc1cc(C)c(-n2cc3c(=O)[nH]c(N4CCOCC4)nc3n2)c(Cl)c1 [Example 148] | 19 nM
Cc1cc(Br)ccc1-n1cc2c(=O)[nH]c(N3CCN(c4ncccn4)CC3)nc2n1 [Example 149] | 21 nM
Cc1c2c(=O)[nH]c(N3CCCC3)nc2nn1-c1ccc(C(F)(F)F)cc1 [Example 151] | 50 nM
Cc1cc(Br)ccc1-n1cc2c(=O)[nH]c(N3CCN(C4CC4)C(=O)C3)nc2n1 [Example 152] | 77 nM
Cc1cc(Br)ccc1-n1cc2c(OCCO)nc(N3CCOCC3)nc2n1 [Example 153] | 460 nM
COCCOc1nc(N2CCOCC2)nc2nn(-c3ccc(Br)cc3C)cc12 [Example 154] | 590 nM
Cc1cc(Br)ccc1-n1cc2c(OCC3CC3)nc(N3CCOCC3)nc2n1 [Example 155] | 290 nM
Cc1cc(Br)ccc1-n1cc2c(OCC#N)nc(N3CCOCC3)nc2n1 [Example 156] | 290 nM
O=c1[nH]c(N2CCCC2)nc2nn(-c3ncc(C(F)(F)F)cc3Cl)cc12 [Example 157] | 33 nM
Cc1cc(Cl)cc(CO)c1-n1cc2c(=O)[nH]c(N3CCOCC3)nc2n1 [Example 158] | 92 nM
Cc1cc(Cl)cc(C=O)c1-n1cc2c(=O)[nH]c(N3CCOCC3)nc2n1 [Example 160] | 36 nM
COCc1cc(Cl)ccc1-n1cc2c(=O)[nH]c(N3CC(F)(F)C3)nc2n1 [Example 161] | 22 nM
Cc1cc(Br)ccc1-n1cc2c(=O)n(CCO)c(N3CCOCC3)nc2n1 [Example 163] | 47 nM
Cc1cc(Cl)ccc1-n1cc2c(=O)[nH]c(N3CCOCC3)nc2n1 [Example 164] | 29 nM
Cc1cc(Cl)ccc1-n1cc2c(=O)[nH]c(N3CCCOCC3)nc2n1 [Example 165] | 29 nM
Cc1cc(Cl)cc(C)c1-n1cc2c(=O)[nH]c(N3CCOCC3)nc2n1 [Example 166] | 16 nM
Cc1cc(Cl)cc(C(=O)C2CC2)c1-n1cc2c(=O)[nH]c(N3CCOCC3)nc2n1 [Example 167] | 430 nM
Cc1cc(Cl)cc(C#N)c1-n1cc2c(=O)[nH]c(N3CCOCC3)nc2n1 [Example 168] | 60 nM

Same assay, conditions: IL-1β production in THP1-Null cells; test compound 0.0024 μM

SMILES | inhibition at 0.0024 µM
Cc1cc(C2CC2)cc(C)c1-n1cc2c(=O)[nH]c(N3CCN(S(C)(=O)=O)CC3)nc2n1 [Example 125] | 52%
Cc1cc(C2CC2)cc(Cl)c1-n1cc2c(=O)[nH]c(N3CCOCC3)nc2n1 [Example 147] | 54%

Same assay, conditions: IL-1β production in THP1-Null cells; test compound 0.024 μM

SMILES | inhibition at 0.024 µM
COc1nc(N2CCOCC2)nc2nn(-c3ccc(Br)cc3C)cc12 [Example 89, 4-(2-(4-bromo-2-methylphenyl)-4-methoxy-2H-pyrazolo[3,4-d]pyrimidin-6-yl)morpholine] | 77%

Reference: patent US20240287079A1, “6-AMINOPYRAZOLOPYRIMIDINE COMPOUND AND PHARMACEUTICAL USE THEREOF” (Japan Tobacco Inc., priority 2021, published 2024)
